Measured values published in ChEMBL document CHEMBL1201862, “PubChem BioAssay data set” (2004).
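Protocol summary: plate cells (96-well), add compound at 5 concentrations, incubate 48 h, interpolate endpoints linearly. Here, GI50 denotes the concentration required for 50% inhibition of growth.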 Active and inactive are the calls of the source. Rule as the data show it: active = GI50 up to about 1.1 µM and inactive = higher.

Columns and labels:
Test in all cases: NCI-60 cell line screen, 48 h
K562 = test system: K562
UACC-257 = test system: UACC-257
OVCAR-4 = test system: OVCAR-4
RXF 393 = test system: RXF 393
SN12C = test system: SN12C
SNB-78 = test system: SNB-78
NCI-H522 = test system: NCI-H522
UACC-62 = test system: UACC-62
HOP-18 = test system: HOP-18
A549 = test system: A549
KM-20L2 = test system: KM-20L2
HCT-116 = test system: HCT-116
SF-539 = test system: SF-539
NCI-H226 = test system: NCI-H226
HCT-15 = test system: HCT-15
UO-31 = test system: UO-31
NCI-H460 = test system: NCI-H460
LXFL 529 = test system: LXFL 529
NCI-H23 = test system: NCI-H23
SF-295 = test system: SF-295
SF-268 = test system: SF-268
KM12 = test system: KM12
TK-10 = test system: TK-10
COLO 205 = test system: COLO 205
DMS-273 = test system: DMS-273
Malme-3M = test system: Malme-3M
HT-29 = test system: HT-29
SNB-75 = test system: SNB-75
EKVX = test system: EKVX
U-251 = test system: U-251
MOLT-4 = test system: MOLT-4
SR = test system: SR
IGROV-1 = test system: IGROV-1
LOX IMVI = test system: LOX IMVI
HOP-62 = test system: HOP-62
SK-MEL-2 = test system: SK-MEL-2
HOP-92 = test system: HOP-92
SNB-19 = test system: SNB-19
ACHN = test system: ACHN
A498 = test system: A498
XF498 = test system: XF498
OVCAR-3 = test system: OVCAR-3
RPMI-8226 = test system: RPMI-8226
SK-MEL-28 = test system: SK-MEL-28
SK-OV-3 = test system: SK-OV-3
M14 = test system: M14
HCC 2998 = test system: HCC 2998
SW-620 = test system: SW-620
CCRF-CEM = test system: CCRF-CEM
HL-60 = test system: HL-60
786-0 = test system: 786-0
DMS-114 = test system: DMS-114
OVCAR-8 = test system: OVCAR-8
DLD-1 = test system: DLD-1
CAKI-1 = test system: CAKI-1
SK-MEL-5 = test system: SK-MEL-5
M19-MEL = test system: M19-MEL
OVCAR-5 = test system: OVCAR-5
NCI/ADR-RES = test system: NCI/ADR-RES

Measured: GI50

c1ccc2c(c1)nnn2CNc1ccc(N2CCCCC2)cc1
inactive: K562 > 100 µM | UACC-257 > 100 µM | OVCAR-4 > 100 µM | RXF 393 > 100 µM | SN12C > 100 µM | SNB-78 > 100 µM | NCI-H522 > 100 µM | UACC-62 > 100 µM | HOP-18 > 100 µM | A549 > 100 µM | KM-20L2 > 100 µM | HCT-116 > 100 µM | SF-539 > 100 µM | NCI-H226 > 100 µM | UO-31 > 100 µM | NCI-H460 > 100 µM | LXFL 529 > 100 µM | NCI-H23 > 100 µM | SF-295 > 100 µM | SF-268 > 100 µM | KM12 > 100 µM | TK-10 > 100 µM | COLO 205 > 100 µM | DMS-273 > 100 µM | Malme-3M > 100 µM | HT-29 > 100 µM | SNB-75 > 100 µM | EKVX > 100 µM | U-251 > 100 µM | MOLT-4 > 100 µM | SR 62.7 µM | IGROV-1 > 100 µM | LOX IMVI > 100 µM | HOP-62 > 100 µM | SK-MEL-2 > 100 µM | HOP-92 > 100 µM | SNB-19 > 100 µM | ACHN > 100 µM | A498 > 100 µM | XF498 > 100 µM | OVCAR-3 > 100 µM | RPMI-8226 68.2 µM | SK-MEL-28 > 100 µM | SK-OV-3 > 100 µM | M14 > 100 µM | HCC 2998 > 100 µM | SW-620 > 100 µM | CCRF-CEM 77.1 µM | HL-60 45.3 µM | 786-0 > 100 µM | DMS-114 > 100 µM | OVCAR-8 > 100 µM | DLD-1 > 100 µM
> 100 µM: HCT-15

CC1COS(=O)O1 (stereo unspecified)
inactive: K562 > 100 µM | UACC-257 > 100 µM | OVCAR-4 > 100 µM | SN12C > 100 µM | SNB-78 > 100 µM | NCI-H522 > 100 µM | UACC-62 > 100 µM | CAKI-1 > 100 µM | HOP-18 > 100 µM | A549 > 100 µM | KM-20L2 > 100 µM | HCT-116 > 100 µM | SF-539 > 100 µM | NCI-H226 > 100 µM | UO-31 > 100 µM | NCI-H460 > 100 µM | NCI-H23 > 100 µM | SK-MEL-5 > 100 µM | SF-295 > 100 µM | SF-268 > 100 µM | KM12 > 100 µM | TK-10 > 100 µM | COLO 205 > 100 µM | DMS-273 > 100 µM | Malme-3M > 100 µM | M19-MEL > 100 µM | HT-29 > 100 µM | SNB-75 63 µM | EKVX > 100 µM | MOLT-4 > 100 µM | SR > 100 µM | IGROV-1 > 100 µM | OVCAR-5 > 100 µM | LOX IMVI > 100 µM | HOP-62 > 100 µM | SK-MEL-2 > 100 µM | HOP-92 > 100 µM | SNB-19 > 100 µM | ACHN > 100 µM | A498 > 100 µM | XF498 > 100 µM | OVCAR-3 > 100 µM | RPMI-8226 > 100 µM | SK-MEL-28 > 100 µM | SK-OV-3 > 100 µM | M14 > 100 µM | HCC 2998 > 100 µM | SW-620 > 100 µM | CCRF-CEM > 100 µM | HL-60 > 100 µM | 786-0 > 100 µM | DMS-114 > 100 µM | OVCAR-8 > 100 µM | DLD-1 > 100 µM
> 100 µM: HCT-15

O=C1C=C2C(=CCOC2O)O1 (stereo unspecified) [PATULIN]
inactive: OVCAR-4 2.84 µM | SNB-78 2.32 µM | HOP-18 1.98 µM | A549 4.1 µM | KM-20L2 2.28 µM | NCI-H226 3.49 µM | NCI-H460 1.16 µM | NCI-H23 1.15 µM | M19-MEL 1.29 µM | SNB-75 4.28 µM | IGROV-1 2.1 µM | OVCAR-5 7.4 µM | HOP-62 10.6 µM | SK-MEL-2 1.37 µM | HOP-92 3.08 µM | HCC 2998 1.15 µM
0.668 µM: HCT-15
active: UACC-257 0.723 µM | SN12C 0.618 µM | NCI-H522 0.365 µM | UACC-62 0.851 µM | HCT-116 0.223 µM | SK-MEL-5 1 µM | DMS-273 0.881 µM | NCI/ADR-RES 0.733 µM | Malme-3M 1.12 µM | MOLT-4 0.368 µM | XF498 0.267 µM | RPMI-8226 0.189 µM | CCRF-CEM 0.158 µM | DMS-114 1.08 µM | DLD-1 0.456 µM
